Data set [1] concerns the target MK-801 binding site of the N-methyl-D-aspartate receptor (NMDAR). Kind of data set: NMDAR radioligand binding with [3H]MK-801, Method A. The arrangement: species or system Wistar rat. As to conditions: MK-801 site, Method A, Wistar rat brain (minus cerebellum), 5.0 nM [3H]MK-801; read-out: NMDAR Ki ± SEM. The protocol:
Radioligand Binding—Method A. Affinity of the test compounds for NMDAR was determined in radioligand binding experiments with [^3H]MK-801 by Eurofins Panlabs, Inc., using methods adapted from the literature (Javitt et al. 1987; Reynolds et al. 1989) and under the conditions described in Table 12.

Data set [2] in a line: HLM stability (High Activity). The format is in vitro ADME. As to conditions: both sexes, human, liver microsomes, pH 7.4, Condition 2 (High Activity), 1.0 mg protein/mL. The protocol: (§1) HLM Stability (High Activity). Pooled HLM from adult male and female donors (XenoTech H0630) were used. Microsomal incubations were carried out in 96-well plates in 5 aliquots of 40 μL, each (one for each time point). Liver microsomal incubation medium consisted of PBS (100 mM, pH 7.4), MgCl2 (3.3 mM), NADPH (3 mM), glucose-6-phosphate (5.3 mM), and glucose-6-phosphate dehydrogenase (0.67 units/mL), with 1.0 mg of liver microsomal protein per mL. Control incubations were performed by replacing the NADPH-cofactor system with PBS. Test compounds (1 μM, final solvent concentration 1.6%) were incubated with microsomes at 37° C., shaking at 100 rpm. Incubations were performed in duplicate. Five time points over 60 minutes were analyzed. The reactions were stopped by adding 12 volumes of 90% acetonitrile-water to incubation aliquots, followed by protein sedimentation by centrifugation at 5500 rpm for 3 minutes. Supernatants were analyzed for parent compound remaining using a fit-for-purpose liquid chromatography-tandem mass spectrometry (LC-MS/MS) method, with authentic samples of each analyte used for identity confirmation.
(§2) Data Analysis. The elimination constant (kel), half-life (t1/2) and intrinsic clearance (Clint) were determined in a plot of […] versus time, using linear regression analysis.
A general note: Liver microsomes are vesicles of endoplasmic reticulum, rich in cytochrome P450 enzymes.

Data set [3] is described as follows: HLM stability (Low Activity). It counts as in vitro ADME. As to conditions: both sexes, human, liver microsomes, pH 7.4, Condition 1 (Low Activity), 0.42 mg protein/mL. The protocol:
For some of the compounds, stability was tested under two microsomal incubation conditions, one with normal enzymatic activity (low activity) and one with higher enzymatic loading, longer incubation time, and lower compound concentration (high activity) intended to increase metabolic lability.
as §1, with “Stability (Low” for “Stability (High”, “with 0.42” for “with 1.0”, “compounds (2” for “compounds (1”, “over 40” for “over 60”
as §2

The target in data set [4] is T1, dopamine transporter (DAT) (Homo sapiens, UniProt Q01959).
T1 construct: expressed in transfected cells; host or cells: CHO (uptake)
Kind of data set: Fluorescent substrate uptake inhibition, DAT. It counts as cell-based. As to conditions: 10 μM, CHO cells expressing DAT.

For data set [5], the target named is MK-801 binding site of the N-methyl-D-aspartate receptor (NMDAR). Kind of data set: NMDAR radioligand binding with [3H]MK-801, Method B. More on the design: species or system Sprague Dawley rat. As to conditions: MK-801 site, Method B, male Sprague Dawley rat cortex, 5.0 nM [3H]MK-801; read-out: NMDAR Ki ± SEM. The protocol: Radioligand Binding—Method B. Affinity of the test compounds for NMDAR was determined in radioligand binding experiments with [^3H]MK-801 by WuXi AppTec (Hong Kong) Limited, under the conditions described in Table 13.

Data set [6] deals with T2, serotonin transporter (SERT) (Homo sapiens, UniProt P31645).
T2 construct: expressed in transfected cells; host or cells: HEK293
Kind of data set: Fluorescent substrate uptake inhibition, SERT. The format is cell-based. The settings on record: for inhibition at 10 µM: HEK293 cells expressing SERT.

A short description of data set [7]: RLM stability (High Activity). The format is in vitro ADME, Sprague Dawley rats. The settings on record: male, Sprague Dawley, rat, liver microsomes, pH 7.4, Condition 2 (High Activity), 1 μM, 1.0 mg protein/mL. The protocol:
as §1, with “RLM” for “HLM”, “from” for “from adult”, “Sprague Dawley rats” for “and female donors”, “R1000, lot #1910100)” for “H0630)”, “μL” for “μL,”, “9” for “12”
as §2

In data set [8] the target is T3, norepinephrine transporter (NET) (Homo sapiens, UniProt P23975).
T3 construct: expressed in transfected cells; host or cells: HEK293
Kind of data set: Fluorescent substrate uptake inhibition, NET. It counts as cell-based. As to conditions: 10 μM, HEK293 cells expressing NET.

The nature of data set [9]: MLM stability (High Activity). It counts as in vitro ADME, BALB/c mice. As to conditions: male, BALB/c, mouse, liver microsomes, pH 7.4, Condition 2 (High Activity), 1.0 mg protein/mL. The protocol: as §1, with “MLM” for “HLM”, “from” for “from adult”, “BALB/c mice” for “and female donors”, “M3000)” for “H0630)”, “μL” for “μL,”, “9” for “12”
as §2

In data set [10] the target is T4, vesicular monoamine transporter 2 (VMAT2) (Homo sapiens, UniProt Q05940).
T4 construct: expressed in transfected cells
Kind of data set: Fluorescent substrate uptake inhibition, VMAT2. The format is cell-based. The settings on record: 10 μM, transfected cells.

The target of another data set is T5, SERT (Homo sapiens, UniProt P31645).
T5 construct: expressed in transfected cells; host or cells: HEK293
Kind of data set: SERT radioligand binding with [3H]imipramine. The protocol: Radioligand Binding. Affinity of the test compounds for SERT, NET, and DAT was determined in radioligand binding experiments with [^3H]imipramine, [^3]nisoxetine, and [^3H]WIN35,428, respectively, by WuXi AppTec (Hong Kong) Limited, under the conditions described in Table 15.

Data set [11] is described as follows: HLM stability (Low Activity, Alternative Method). The format is in vitro ADME. The settings on record: both sexes, human, liver microsomes, pH 7.4, Condition 1 column, values marked *: Low Activity, 0.50 mg protein/mL. Summed up:
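Pooled male and female human liver microsomes (0.50 mg/mL) in 100 mM PBS pH 7.4 with 1 mM MgCl2 and 1 mM NADPH, compound 1 μM (1.0% solvent), 37° C with shaking, six time points over 60 min. Parent remaining measured by LC-MS/MS; kel, t1/2 and Clint from linear regression of ln(AUC) versus time.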

Data set [12] can be described thus: RLM stability (Low Activity). The format is in vitro ADME, Sprague Dawley rats. As to conditions: male, Sprague Dawley, rat, liver microsomes, pH 7.4, Condition 1 (Low Activity), 0.50 mg protein/mL. In a few lines: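 Pooled male Sprague Dawley rat liver microsomes (0.50 mg/mL) in PBS pH 7.4 with 1 mM MgCl2 and 1 mM NADPH; compound 1 μM, 1.0% solvent, 37° C. Six time points over 60 min, parent remaining by LC-MS/MS; kel, t1/2 and Clint from linear regression of ln(AUC) versus time.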

The nature of data set [13]: MLM stability (Low Activity). The settings on record: male, CD-1, mouse, liver microsomes, pH 7.4, Condition 1 (Low Activity), 0.50 mg protein/mL. The format is in vitro ADME, CD-1 mice. In a few lines:
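Pooled male CD-1 mouse liver microsomes (0.50 mg/mL) with 1 μM compound and 1 mM NADPH in 100 mM PBS pH 7.4 with 1 mM MgCl2, 37 °C, six time points over 60 min. Parent remaining by LC-MS/MS; kel, t1/2 and Clint from linear regression of ln(AUC) versus time.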

T2 sequence (P31645 whole entry, species assumed): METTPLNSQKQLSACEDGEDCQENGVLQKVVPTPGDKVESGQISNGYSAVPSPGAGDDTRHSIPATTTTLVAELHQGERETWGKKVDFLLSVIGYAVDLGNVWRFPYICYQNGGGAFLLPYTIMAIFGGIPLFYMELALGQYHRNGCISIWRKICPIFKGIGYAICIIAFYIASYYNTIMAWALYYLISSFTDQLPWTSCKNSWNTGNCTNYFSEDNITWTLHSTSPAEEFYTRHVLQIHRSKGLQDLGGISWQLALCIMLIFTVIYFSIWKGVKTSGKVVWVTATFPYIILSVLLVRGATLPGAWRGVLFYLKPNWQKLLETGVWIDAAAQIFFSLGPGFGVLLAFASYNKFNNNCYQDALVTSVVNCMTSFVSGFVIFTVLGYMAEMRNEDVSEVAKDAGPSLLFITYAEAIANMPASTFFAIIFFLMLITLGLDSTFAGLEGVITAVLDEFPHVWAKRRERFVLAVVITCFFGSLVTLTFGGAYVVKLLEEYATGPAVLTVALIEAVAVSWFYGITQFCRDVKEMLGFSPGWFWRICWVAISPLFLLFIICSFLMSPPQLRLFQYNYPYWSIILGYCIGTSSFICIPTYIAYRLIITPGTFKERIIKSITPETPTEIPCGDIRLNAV
T1 sequence (Q01959 whole entry, species assumed): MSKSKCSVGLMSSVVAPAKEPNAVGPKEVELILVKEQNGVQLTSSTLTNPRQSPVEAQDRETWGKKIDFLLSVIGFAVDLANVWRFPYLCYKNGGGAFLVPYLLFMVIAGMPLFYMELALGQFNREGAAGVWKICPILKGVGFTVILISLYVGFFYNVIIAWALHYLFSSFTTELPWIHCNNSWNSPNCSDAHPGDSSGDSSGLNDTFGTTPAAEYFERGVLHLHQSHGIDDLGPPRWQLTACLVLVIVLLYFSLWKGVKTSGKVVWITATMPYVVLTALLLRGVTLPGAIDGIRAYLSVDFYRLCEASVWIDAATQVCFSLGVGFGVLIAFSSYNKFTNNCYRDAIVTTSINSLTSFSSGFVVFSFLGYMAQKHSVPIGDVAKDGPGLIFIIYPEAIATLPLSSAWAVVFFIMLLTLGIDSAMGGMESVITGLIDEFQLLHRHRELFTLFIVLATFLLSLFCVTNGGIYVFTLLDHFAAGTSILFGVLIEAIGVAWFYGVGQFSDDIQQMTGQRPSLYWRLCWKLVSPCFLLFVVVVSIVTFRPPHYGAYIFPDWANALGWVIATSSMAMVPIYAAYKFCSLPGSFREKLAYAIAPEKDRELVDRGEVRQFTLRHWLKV
T4 sequence (Q05940 whole entry, species assumed): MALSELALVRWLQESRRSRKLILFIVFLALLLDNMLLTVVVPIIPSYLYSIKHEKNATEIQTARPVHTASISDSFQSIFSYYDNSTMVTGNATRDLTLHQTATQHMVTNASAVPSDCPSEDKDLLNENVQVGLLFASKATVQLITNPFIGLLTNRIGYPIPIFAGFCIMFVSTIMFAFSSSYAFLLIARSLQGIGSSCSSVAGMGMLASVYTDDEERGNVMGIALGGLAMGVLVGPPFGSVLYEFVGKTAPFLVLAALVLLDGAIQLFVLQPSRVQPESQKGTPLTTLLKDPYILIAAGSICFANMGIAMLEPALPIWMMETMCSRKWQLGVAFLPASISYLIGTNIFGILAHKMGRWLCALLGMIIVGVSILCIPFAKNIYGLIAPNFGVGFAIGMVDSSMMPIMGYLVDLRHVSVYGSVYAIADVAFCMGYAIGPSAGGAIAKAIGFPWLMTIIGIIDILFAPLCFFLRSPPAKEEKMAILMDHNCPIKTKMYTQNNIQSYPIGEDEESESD
T3 sequence (P23975 whole entry, species assumed): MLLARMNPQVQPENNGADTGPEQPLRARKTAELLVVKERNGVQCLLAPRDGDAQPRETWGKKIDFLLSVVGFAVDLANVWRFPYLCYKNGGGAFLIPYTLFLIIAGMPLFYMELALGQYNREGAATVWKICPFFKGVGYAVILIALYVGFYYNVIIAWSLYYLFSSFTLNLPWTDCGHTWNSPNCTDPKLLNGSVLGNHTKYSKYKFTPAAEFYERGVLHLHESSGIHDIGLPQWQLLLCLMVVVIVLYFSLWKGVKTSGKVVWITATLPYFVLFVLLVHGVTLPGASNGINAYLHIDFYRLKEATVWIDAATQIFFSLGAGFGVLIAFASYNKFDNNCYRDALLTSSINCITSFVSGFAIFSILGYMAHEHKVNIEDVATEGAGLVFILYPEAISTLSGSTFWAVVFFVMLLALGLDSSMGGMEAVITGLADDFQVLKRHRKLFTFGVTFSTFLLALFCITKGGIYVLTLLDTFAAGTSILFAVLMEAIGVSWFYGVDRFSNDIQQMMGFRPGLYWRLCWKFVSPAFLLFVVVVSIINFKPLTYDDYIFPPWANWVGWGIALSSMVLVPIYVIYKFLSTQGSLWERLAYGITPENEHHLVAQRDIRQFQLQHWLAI
T5 sequence (P31645 whole entry, species assumed): as the sequence (P31645 whole entry, species assumed) above

As to `CCNC1(c2ccccc2)CCCCC1=O` (racemic) [Compound 1rac], in [1], the Ki is 0.3 µM. In [2], the half-life at 1 μM was 4.98 h and the microsomal CLint at 1 μM worked out at 2 µL/min/mg. Moreover, in data set [3], the half-life at 2 μM was determined as 2.22 h and the microsomal CLint at 2 μM was 13 µL/min/mg.

On to `CNC1(c2cccc(OC)c2)CCCCC1=O` (racemic) [Compound 3rac], for which the Ki in data set [1] was determined as 0.99 µM. In data set [2], this compound had a half-life at 1 μM of 2.5 h and a microsomal CLint at 1 μM of 5 µL/min/mg. In [3], this compound showed a half-life at 2 μM of 1.46 h and a microsomal CLint at 2 μM of 19 µL/min/mg.

Regarding `NC1(c2ccccc2)CCCCC1=O` (racemic) [Compound 11rac, 2-amino-2-phenyl-cyclohexan-1-one], in data set [1], the Ki was 1.4 µM. In data set [2], this compound came in with a half-life at 1 μM of 8.9 h and a microsomal CLint at 1 μM of 1 µL/min/mg. For the same compound, in data set [3], the half-life at 2 μM came to 13.4 h and the microsomal CLint at 2 μM is 2 µL/min/mg.

`NC1(c2ccccc2Cl)CCCCC1=O` (racemic) [Compound 78rac]: the Ki in data set [1] turned out to be 4 µM. In data set [2], this compound came in with a half-life at 1 μM of 3.03 h and a microsomal CLint at 1 μM of 4 µL/min/mg. In data set [3], this compound displayed a half-life at 2 μM of 4.28 h and a microsomal CLint at 2 μM of 7 µL/min/mg.

Take `CN[C@@]1(c2cccc(F)c2)CCCCC1=O` [Compound 19R, (R)-2-(3-fluorophenyl)-2-(methylamino)cyclohexan-1-one]: the inhibition at 10 µM in data set [4] was -10.7%; in data set [6], 20.9%; in [8] it was 8.8%; in [10], 11%. The Ki in data set [5] came to 6.8 µM. The figures for the half-life at 1 μM in [7], in data set [9] and in [2] were 0.195 h, 0.998 h and 2.27 h, respectively. Also, the results for the microsomal CLint at 1 μM in [7], in data set [9] and in data set [2] were 59 µL/min/mg, 12 µL/min/mg and 5 µL/min/mg, respectively.

Consider `CC(C)N[C@@]1(c2ccccc2)CCCCC1=O` [Compound 28R, (R)-2-(isopropylamino)-2-phenylcyclohexan-1-one], for which the inhibition at 10 µM in data set [4] was 16.5%; in data set [6] it was 37.2%; in [8] it was 11.4%; in data set [10], -11.4%. The Ki on SERT is 8.6 µM; in data set [5], above 23 µM. Besides, the half-life at 1 μM in [11] came out at 1.16 h; in data set [12], 0.438 h; in data set [13] it was 0.188 h. Besides, the figures for the microsomal CLint at 1 μM in data set [11], in data set [12] and in [13] were 20 µL/min/mg, 52.6 µL/min/mg and 123 µL/min/mg, respectively. Further, the IC50 in [6] stood at 7.3 µM.

Broadly, the Ki is the dissociation constant of the complex between target and ligand, obtained from inhibition or displacement. What is called half-life is the time in which the quantity being followed falls by half. Lower therefore signals rapid decline. As usually defined, the microsomal CLint is the rate of metabolic loss divided by the concentration. In general, inhibition refers to the change of the read-out against control, counted positive when it falls. Broadly, the IC50 is the concentration that gives 50% inhibition.

Values taken from US11344510B2, “Arylcyclohexylamine derivatives and their use in the treatment of psychiatric disorders” (Gilgamesh Pharmaceuticals, Inc., priority 2019, dated 2022).
